According to ChEMBL document CHEMBL4610071, “Ancistrosecolines A-F, Unprecedented seco-Naphthylisoquinoline Alkaloids from the Roots of Ancistrocladus abbreviatus, with Apoptosis-Inducing Potential against HeLa Cancer Cells” (J Nat Prod, 2020):
pIC50: −log10 of the molar value. The source made the active and inactive calls. The calls are words filed in the database; no cut-off is given here.

Key:
Assay type in all cases: functional, cell-based
HeLa [1] = assay: Induction of morphological alteration in human HeLa cells at 50 uM measured within 3 hrs by real-time digital microscopy
HeLa [2] = assay: Induction of apoptosis in human HeLa cells at 50 uM assessed as nuclear fragmentation incubated for 72 hrs by Hoechst 33342 staining based microscopic method
HeLa [3] = assay: Induction of apoptosis in human HeLa cells at 50 uM measured within 24 hrs by real-time digital microscopy
HeLa [4] = assay: Cytotoxicity against human HeLa cells incubated for 72 hrs by WST-8 assay
HeLa [5] = assay: Inhibition of cell division in human HeLa cells at 50 uM measured within 3 hrs by real-time digital microscopy
HeLa [6] = assay: Induction of apoptosis in human HeLa cells at 50 uM assessed as appearance of elongated cellular morphology incubated for 72 hrs by Hoechst 33342 staining based microscopic method

| Structure (SMILES) | Activity (HeLa [1]) | Activity (HeLa [2]) | Activity (HeLa [3]) | Activity (HeLa [4]) | pIC50 (HeLa [4]) | inhibition (HeLa [5]) | Activity (HeLa [6]) |
| --- | --- | --- | --- | --- | --- | --- | --- |
| COc1cc(C[C@H](C)N)cc(O)c1-c1ccc(OC)c2c(OC)cc(C)cc12 (atropisomer P) | Active | Active | Active | Dose-dependent effect | 4.95 | Active | Active |
| CN[C@@H](C)Cc1cc(O)c(-c2c(C)cc(OC)c3c(OC)cccc23)c(OC)c1 (atropisomer P) |  |  |  |  | 4.28 |  |  |
| COc1cc(C[C@H](C)N)cc(O)c1-c1c(C)cc(OC)c2c(OC)cccc12 (atropisomer P) |  |  |  |  | 4.14 |  |  |
